These results are taken from US8604016B2, “Heterocyclic inhibitors of glutaminase” (Calithera Biosciences Inc., priority 2011, dated 2013).

As a reminder, the solubility is the concentration that dissolves in the medium under given conditions.

Each structure is given as a SMILES string. pIC50: −log10 of the molar value. ≈ marks a conversion by molar mass, not a printed value.

Data set [1] deals with T1, recombinant form of Glutaminase 1 (GAC) (Homo sapiens, UniProt O94925). Nature of the data set: Recombinant Enzyme Assay - Time Dependence (60 minutes enzyme/compound preincubation). It is filed as biochemical. The protocol: The enzyme/compound mix was sealed with sealing foil (USA Scientific) and allowed to incubate, with mild agitation, for 60 minutes at 20° C. Enzymatic reaction was started with the addition of 50 μL of substrate solution (50 mM Tris-HCl pH 8.0, 0.2 mM EDTA, 150 mM K2HPO4, 0.1 mg/ml BSA, 1 mM DTT, 20 mM L-glutamine, 2 mM NAD^+, and 10 ppm antifoam) and read in a Molecular Devices M5 plate reader at 20° C. The plate reader was configured to read absorbance (λ=340 nm) in kinetic mode for 15 minutes. Data was recorded as milli-absorbance units per minute and slopes were compared to a control compound and a DMSO-only control on the same plate. Compounds with slopes less than the DMSO control were considered inhibitors and plate variability was assessed using the control compound.

The nature of data set [2]: Solubility (18 hr vortex mixing at room temperature, filtration, HPLC). In kind it is physicochemical. Particulars: thermodynamic from solid. The protocol:
Ca. 1 mg portions of test article were combined with 120 μL solvent in wells of a 96×2 mL polypropylene plate. […] The contents of all wells were then filtered through a 0.45 μm GHP filter plate to yield clear filtrates. 5 μL of each filtrate was diluted into 100 μL DMF and vortex mixed to yield HPLC samples. Duplicate quantitation standards for each test article were prepared by diluting weighed portions of solid test article in measured volumes of DMF. 2 μL of each HPLC sample and quantitation standard were analyzed by HPLC using the method outlined in Table 5. Dissolved test article concentrations were calculated by peak area ratio against the appropriate quantitation standards.

Data set [3] has as its target T1, recombinant form of Glutaminase 1 (GAC). The data set is described as follows: Recombinant Enzyme Assay (GAC coupled to GDH, NADH absorbance, no preincubation). In kind it is biochemical. Particulars: no preincubation; read-out: GAC Delta N2 IC50 no preinc. Summed up:
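GAC (4 nM) in Tris-HCl pH 8.0 with 150 mM K2HPO4, EDTA, BSA, DTT, plus 4 units/ml GDH and 4 mM ADP, without preincubation. Absorbance at 340 nm was read kinetically for 15 min at 20° C. Slopes (mAU/min) were compared with DMSO-only and control-compound wells on the same plate.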

Setting [4] is: read-out: GAC Delta N2 IC50 60 min.
Setting [5] is: read-out: GAC Delta N2 IC50 60 min preinc.

With `CC(C)(C)OC(=O)NCc1cc(CC(=O)Nc2nnc(CCCCc3ccc(NC(=O)Cc4ccccc4)nn3)s2)ccc1F` [Compound 492], in data set [1] (setting [4]), the pIC50 was 8.22.
For the compound `O=C(Nc1ccc(CCCCc2nnc(NC(=O)C(O)c3cccc(Cl)c3)s2)nn1)C(O)c1cccc(Cl)c1` (centres unmarked) [Compound 446], the pIC50 in data set [1] (setting [4]) was 7.96.
Consider `CC(C(=O)Nc1ccc(CCCCc2nnc(NC(=O)C(C)c3ccccc3)s2)nn1)c1ccccc1` (centres unmarked) [Compound 613], for which the pIC50 in data set [1] (setting [4]) was 7.72.
As to `O=C(Cc1ccccc1)Nc1nnc(CCCCc2nnc(NC(=O)Cc3cccc(OCCN4CCOCC4)c3)s2)s1` [Compound 390], the pIC50 in data set [1] (setting [5]) was 7.38.
`COC(C(=O)Nc1nnc(CCCCc2ccc(NC(=O)Cc3cccc(CNC(=O)CC(C)(O)C(F)(F)F)c3)nn2)s1)c1ccccc1` (centres unmarked) [Compound 605]: the pIC50 in data set [1] (setting [4]) is 7.89.
With `CCCC(=O)OCN(C(=O)Cc1cccc(CNC(=O)OC(C)(C)C)c1)c1nnc(CCCCc2ccc(NC(=O)Cc3ccccc3)nn2)s1` [Compound 552], the pIC50 in data set [1] (setting [4]) was less than 4.70.
Consider `O=C(Cc1ccccc1)Nc1ccc(CCCCc2nnc(NC(=O)Cc3ccc(F)c(CN4CCNCC4)c3)s2)nn1` [Compound 494], for which the pIC50 in data set [1] (setting [4]) was 7.72.
Turning to `O=C(Cc1ccccc1)Nc1ccc(CCCCc2nnc(NC(=O)CC3=CN4CCCN=C4S3)s2)nn1` [Compound 511], the pIC50 in data set [1] (setting [4]) is 6.24.
For `CC(C)NC(=O)Nc1nnc(CCCCc2nnc(NC(=O)Cc3ccccc3)s2)s1` [Compound 438], the pIC50 in data set [1] (setting [4]) is 6.13.
Consider `CN(Cc1cccc(CC(=O)Nc2nnc(CCCCc3nnc(NC(=O)Cc4ccccc4)s3)s2)c1)C(=O)OC(C)(C)C` [Compound 391], for which the pIC50 in data set [1] (setting [5]) was 8.15.
In the case of `Cc1ccccc1CC(=O)Nc1nnc(CCCCc2ccc(NC(=O)Cc3ccccc3Cl)nn2)s1` [Compound 535], the pIC50 in data set [1] (setting [4]) was 8.15.
Take `NCc1cccc(CC(=O)Nc2nnc(CCCCc3nnc(NC(=O)Cc4ccccc4)s3)s2)c1` [Compound 437]: in data set [1] (setting [4]), the pIC50 is 7.15.
Consider `CNCc1cccc(CC(=O)Nc2nnc(CCCCc3nnc(NC(=O)Cc4ccccc4)s3)s2)c1` [Compound 393], for which the pIC50 in data set [1] (setting [5]) was 7.00.
With `Cc1ccccc1CC(=O)Nc1nnc(CCCCc2ccc(NC(=O)Cc3ccccc3F)nn2)s1` [Compound 536], in data set [1] (setting [4]), the pIC50 is 8.22.
`O=C(Cc1ccccc1)Nc1ccc(CCCCc2nnc(NC(=O)Cc3cccc(OCc4ccccn4)c3)s2)nn1` [Compound 480]: in data set [1] (setting [4]), the pIC50 was less than 4.70.
Take `CC(=O)N1CCN(Cc2cc(CC(=O)Nc3nnc(CCCCc4ccc(NC(=O)Cc5ccccc5)nn4)s3)ccc2F)CC1` [Compound 528]: the pIC50 in data set [1] (setting [4]) was 8.15.
As to `CC(C(=O)Nc1nnc(CCCCc2ccc(NC(=O)Cc3cccc(CNC(=O)CC(C)(O)C(F)(F)F)c3)nn2)s1)c1ccccc1` (centres unmarked) [Compound 607], in data set [1] (setting [4]), the pIC50 was 8.15.
Same read-out and setting: the figure for `CCOC(=O)NCc1cc(C(C)C(=O)Nc2nnc(CCCCc3ccc(NC(=O)Cc4ccccc4)nn3)s2)ccc1F` (centres unmarked) [Compound 574] is 8.22; for `CC(C)(C)OC(=O)NCc1cccc(CC(=O)Nc2nnc(CCCCc3ccc(NC(=O)C4(C)COC(C)(C)OC4)nn3)s2)c1` [Compound 529] it is 7.49; for `CCCC(=O)OCN(C(=O)Cc1cccc(CC(=O)N2CCC(F)(F)CC2)c1)c1nnc(CCCCc2ccc(NC(=O)Cc3ccccc3)nn2)s1` [Compound 570] it is 6.37.
As to `CC(NC(=O)OC(C)(C)C)c1cccc(CC(=O)Nc2ccc(CCCCc3nnc(NC(=O)C(C)c4ccccc4)s3)nn2)c1` (centres unmarked) [Compound 603], the pIC50 in data set [1] (setting [4]) is 8.05.
With `CC(C)(C)OC(=O)NCc1cccc(CC(=O)Nc2nnc(CCCCc3ccc(NC(=O)C(O)(CO)c4ccccc4)nn3)s2)c1` (centres unmarked) [Compound 507], in data set [1] (setting [4]), the pIC50 was 7.89.
On to `O=C(Cc1ccccc1)Nc1ccc(CCCCc2nnc(NC(=O)C(O)c3ccc(-c4ccccc4)cc3OCCO)s2)nn1` (centres unmarked) [Compound 504], for which the pIC50 in data set [1] (setting [4]) was 8.15.
For the compound `Cc1cccc(CNC(=O)Nc2nnc(CCCCc3nnc(NC(=O)Cc4ccccc4)s3)s2)c1` [Compound 417], the pIC50 in data set [1] (setting [4]) was 7.25.
As for `CN(Cc1cc(CC(=O)Nc2nnc(CCCCc3ccc(NC(=O)Cc4ccccc4)nn3)s2)ccc1F)C(=O)OC(C)(C)C` [Compound 569], the pIC50 in data set [1] (setting [4]) is 8.22.
Turning to `O=C(Cc1ccccc1)Nc1nnc(CCCCc2nnc(NC(=O)Cc3cccc(Cn4cccn4)c3)s2)s1` [Compound 392], the pIC50 in data set [1] (setting [5]) is 7.85.
As to `O=C(CN1CCOCC1)NCc1ccc(CC(=O)Nc2nnc(CCCCc3ccc(NC(=O)Cc4ccccc4)nn3)s2)cc1` [Compound 442], the pIC50 in data set [1] (setting [4]) is 8.15.
`COC(C(=O)Nc1nnc(CCCCc2ccc(NC(=O)Cc3cccc(CNC(=O)CC(O)C(F)(F)F)c3)nn2)s1)c1ccccc1` (centres unmarked) [Compound 604]: the pIC50 in data set [1] (setting [4]) was 7.82.
The same measure, in the same setting: the figure for `CC(NC(=O)OC(C)(C)C)c1cc(CC(=O)Nc2nnc(CCCCc3ccc(NC(=O)Cc4ccccc4)nn3)s2)ccc1F` (centres unmarked) [Compound 653] is 8.30.
Still for that read-out and setting: the figure for `CC(C(=O)Nc1nnc(CCCCc2ccc(NC(=O)Cc3ccccc3)nn2)s1)c1ccc(F)c(CNC(=O)OC(C)(C)C)c1` (centres unmarked) [Compound 568] is 8.05; for `CC(C(=O)Nc1ccc(CCCCc2nnc(NC(=O)Cc3ccccc3)s2)nn1)c1ccc(F)c(CN(C)C(=O)OC(C)(C)C)c1` (centres unmarked) [Compound 599] it is 8.00.
With `Nc1ccc(CCCCc2nnc(NC(=O)C(O)c3cccc(Cl)c3)s2)nn1` (centres unmarked) [Compound 411], in data set [1] (setting [4]), the pIC50 was 6.66.
As to `O=C(Cc1ccccc1F)Nc1ccc(CCCCc2nnc(NC(=O)Cc3ccccc3Cl)s2)nn1` [Compound 566], the pIC50 in data set [1] (setting [4]) is 8.22.
Same read-out and setting: the figure for `CC(C(=O)Nc1nnc(CCCCc2ccc(NC(=O)Cc3cccc(CNC(=O)CC(O)C(F)(F)F)c3)nn2)s1)c1ccccc1` (centres unmarked) [Compound 606] is 8.15; for `CC(NC(=O)OC(C)(C)C)c1cc(CC(=O)Nc2ccc(CCCCc3nnc(NC(=O)Cc4ccccc4)s3)nn2)ccc1F` (centres unmarked) [Compound 654] it is 8.30.
Regarding `CCCC(=O)OCN(C(=O)Cc1ccccc1)c1nnc(CCCCc2ccc(NC(=O)Cc3ccccc3)nn2)s1` [Compound 402], the solubility at 18 h in data set [2] (50 mM citrate buffer pH 2.3, 20 °C, aqueous buffer, 50 mM Cit pH 2.3, room temperature) was less than 4 µg/mL; in data set [2] (50 mM citrate buffer pH 3.3, 20 °C, aqueous buffer, 50 mM Cit pH 3.3, room temperature), less than 4 µg/mL; in data set [2] (50 mM citrate buffer pH 4.4, 20 °C, aqueous buffer, 50 mM Cit pH 4.4, room temperature) it was less than 4 µg/mL; in data set [2] (50 mM citrate buffer pH 5.4, 20 °C, aqueous buffer, 50 mM Cit pH 5.4, room temperature) it was less than 4 µg/mL; in data set [2] (20 °C, aqueous buffer, PBS, room temperature), less than 4 µg/mL; in data set [2] (20 °C, aqueous with cosolvent or surfactant or cyclodextrin, 10% CrEL/50 mM cit, room temperature), 157 µg/mL (≈ 268 µM). In addition, the solubility at 18 h is 153 µg/mL (≈ 261 µM) in data set [2] (20 °C, aqueous with cosolvent or surfactant or cyclodextrin, 10% PS80/50 mM cit, room temperature); 56 µg/mL (≈ 95.4 µM) in data set [2] (20 °C, aqueous with cosolvent or surfactant or cyclodextrin, 20% HPBCD/50 mM cit, room temperature); 19 µg/mL (≈ 32.4 µM) in data set [2] (20 °C, aqueous with cosolvent or surfactant or cyclodextrin, 20% SBECD/50 mM cit, room temperature); 13700 µg/mL (≈ 23300 µM) in data set [2] (20 °C, oil or lipid, Capryol 90, room temperature); 11200 µg/mL (≈ 19100 µM) in data set [2] (20 °C, oil or lipid, Capryol PGMC, room temperature); 31000 µg/mL (≈ 52900 µM) in data set [2] (20 °C, oil or lipid, Labrasol, room temperature). Also, the solubility at 18 h in data set [2] (20 °C, oil or lipid, canola oil, room temperature) was 529 µg/mL (≈ 902 µM); in data set [2] (20 °C, organic solvent or mixture, EtOH, room temperature), 2960 µg/mL (≈ 5040 µM); in data set [2] (20 °C, organic solvent or mixture, PEG400, room temperature), 30200 µg/mL (≈ 51400 µM); in data set [2] (20 °C, organic solvent or mixture, PG, room temperature), 1360 µg/mL (≈ 2330 µM); in data set [2] (20 °C, pH 1, simulated gastric fluid, 0.1M HCl, room temperature) it was less than 4 µg/mL; in data set [2] (20 °C, pH 13, aqueous buffer, 0.1M NaOH, room temperature) it was less than 4 µg/mL. Moreover, the solubility at 18 h in data set [2] (20 °C, saline or isotonic, 0.9% NaCl, room temperature) is less than 4 µg/mL; in data set [2] (water, room temperature (ca. 20 C)) it was less than 4 µg/mL.
Turning to `COc1ccc2c(c1)CC(C(=O)Nc1nnc(CCCCc3nnc(NC(=O)C4Cc5cc(OC)ccc5O4)s3)s1)O2` (centres unmarked) [Compound 121], the pIC50 in data set [3] was 5.77.
Same read-out and setting: the figure for `CO[C@H](C(=O)Nc1nnc(CCCCc2nnc(NC(=O)[C@@H](OC)c3ccccc3)s2)s1)c1ccccc1` [Compound 148] is 6.23; for `COc1cccc(C(CO)C(=O)Nc2nnc(CCSCc3nnc(NC(=O)C(CO)c4cccc(OC)c4)s3)s2)c1` (centres unmarked) [Compound 258] it is 6.72.
For `O=C(Nc1nnc(CCSCCc2nnc(NC(=O)[C@H](O)c3ccccc3)s2)s1)[C@H](O)c1ccccc1` [Compound 81], the pIC50 in data set [3] was 5.00.
